Where two headings read alike, the source gives them in different places.
Assays:
[1] = molecular target: T1, RIPK2 and XIAP protein-protein interaction (Homo sapiens, UniProt O43353); assay: Inhibition of the interaction of RIPK2 with XIAP (NanoBRET in HEK293T cells); type: cell-based; details: RIPK2 HaloTag / XIAP NanoLuc, read-out: NanoBRET Scaffolding IC50
T1 construct: the N-terminus of full-length RIPK2 was appended with the HaloTag fusion protein; expressed in transfected cells; host or cells: HEK293T
T1 sequence (O43353 whole entry, the tested form may be a part): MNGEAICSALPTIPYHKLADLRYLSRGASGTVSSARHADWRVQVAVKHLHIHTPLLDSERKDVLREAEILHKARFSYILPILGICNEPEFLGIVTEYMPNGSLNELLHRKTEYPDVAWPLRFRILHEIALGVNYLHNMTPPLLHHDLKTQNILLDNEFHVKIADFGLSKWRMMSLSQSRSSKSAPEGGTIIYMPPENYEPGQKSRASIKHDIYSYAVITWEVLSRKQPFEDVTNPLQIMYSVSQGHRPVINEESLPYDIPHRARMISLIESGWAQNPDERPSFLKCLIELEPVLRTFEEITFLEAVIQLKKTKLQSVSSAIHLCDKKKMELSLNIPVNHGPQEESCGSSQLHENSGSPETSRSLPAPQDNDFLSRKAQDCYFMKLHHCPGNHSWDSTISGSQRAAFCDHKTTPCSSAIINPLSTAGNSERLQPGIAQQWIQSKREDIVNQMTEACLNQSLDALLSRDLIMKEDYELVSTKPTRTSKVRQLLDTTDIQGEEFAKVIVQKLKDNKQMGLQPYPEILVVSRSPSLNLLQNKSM
Procedure, shortened: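 HEK293T cells transiently co-transfected with HaloTag-RIPK2 (N-terminal) and XIAP-NanoLuc (C-terminal) full-length fusions, grown 24 h at 37° C. in Opti-MEM with 4% FBS. Compounds tested as 10-point 3-fold dilutions; NanoBRET ratio taken as 618 nm acceptor over 460 nm donor emission.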

[2] = system: TNF-alpha secretion in human whole blood; assay: Inhibition of TNF-alpha secretion in human whole blood (IFN-gamma primed, L18-MDP stimulated); type: cell-based; details: L18-MDP 100 ng/mL, read-out: Human Whole Blood TNFα IC50
Procedure: Materials: Assay medium consisted of RPMI 1640 medium (catalogue number: 11875119) and 10% heat inactivated FBS (Cytvia). U-PLEX Biomarker Assay (cat #K15067L-4) to detect levels of TNF-alpha was purchased from Meso Scale Discovery. Heparinized whole blood from healthy donors/volunteers was obtained through Research Blood Components, LLC.
Test compounds were prepared into a 10 mM DMSO solution and serially diluted into 9 points using a 3-fold dilution in a 96 well plate. A 10× working stock solution of recombinant human IFN-gamma (final concentration of 10 ng/mL) was prepared in assay medium and used to prepare a 10× solution of test compound. 20 μL of 10×IFN-gamma and test compound (or DMSO control) was added to a 96-well plate. 160 μL of heparinized whole blood obtained from healthy donors was dispensed into individual wells of the 96-well plate and placed on a plate shaker (150 rpm) and incubated for 60 min at 37° C. in a CO2 incubator. Subsequently, 20 μL of L18-MDP (final concentration of 100 ng/mL) was added to the appropriate wells and further incubated for 16 hours on a plate shaker (150 rpm) at 37° C. in a CO2 incubator. The final concentration of DMSO was 0.05% (v/v) in all wells. After incubation, 100 μL of DPBS was added per well, mixed by shaking at 500 rpm for 2 minutes, followed by centrifugation (400×g for 10 minutes) and collection of supernatants. TNF-alpha in supernatants was measured using MSD immunoassay (MesoScale Discovery). 4-parametric curve fit was used to determine the test compound concentration that results in 50% reduction of TNF-alpha concentration in supernatant relative to assay controls.

RIPK2 enzyme = molecular target: T2, RIPK2 enzyme (Homo sapiens, UniProt O43353); assay: RIPK2 inhibition (ADP-Glo Kinase Assay); type: biochemical; details: RIPK2 5 nM, ATP 150 μM, MBP substrate, read-out: RIPK2 IC50
T2 construct: purchased Carna 09-128
T2 sequence (O43353 1-299 limits assumed): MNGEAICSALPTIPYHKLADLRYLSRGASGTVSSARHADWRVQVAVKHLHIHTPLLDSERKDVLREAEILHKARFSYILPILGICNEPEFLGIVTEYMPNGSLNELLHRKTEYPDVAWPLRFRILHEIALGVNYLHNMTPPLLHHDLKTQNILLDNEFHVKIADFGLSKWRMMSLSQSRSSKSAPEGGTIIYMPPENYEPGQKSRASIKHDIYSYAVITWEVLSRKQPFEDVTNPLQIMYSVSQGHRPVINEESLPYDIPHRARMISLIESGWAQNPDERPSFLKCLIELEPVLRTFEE
Procedure, shortened: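 Swine MBP substrate; compound and 5 nM RIPK2 first mixed for 30 min at room temperature; buffer pH 7.5 HEPES 50 mM with 10 mM MgCl2, 2 mM DTT, 1 mM EGTA, Brij-35, BSA.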

human NOD2 signaling = assay: Inhibition of human NOD2 signaling in HEK-Blue-hNOD2 cells (L18-MDP stimulated, SEAP reporter); type: cell-based; details: NOD2 ligand stimulation, SEAP reporter, read-out: hNOD2 IC50
Procedure, shortened: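 Read-out is SEAP absorbance at 620 nm after 3 h QUANTI-Blue development of supernatant from HEK293 cells carrying NOD2 and a SEAP reporter (12500/well). Cells got compound (10 points, 3-fold dilutions) and 0.5 ng/mL L18-MDP for 24 h at 37 °C; percent inhibition vs stimulated/unstimulated controls, 4-parameter IC50.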

[3] = Homo sapiens, HEK-Blue hNOD2, HEK-Blue-hNOD2 cells

Structure (SMILES) | IC50 [1] [nM] | IC50 ([2]; Homo sapiens, 16 h) [nM] | IC50 (RIPK2 enzyme) [nM] | IC50 (human NOD2 signaling; [3]) [nM] | IC50 ([2]; 16 hours) [nM] | IC50 (human NOD2 signaling; HEK-Blue-hNOD2 cells) [nM]
Cc1cc(CC(=O)Nc2cnn(C(C)(C)C)c2)ccc1Oc1ccnc2ccc(P(C)(C)=O)cc12 [Compound 179, N-(1-(tert-butyl)-1H-pyrazol-4-yl)-2-(4-((6-(dimethylphosphoryl)quinolin-4-yl)oxy)-3-methylphenyl) acetamide] | 465 | 6 | < 2.5 | 38.1 | – | –
Cc1c(Oc2ccnc3ccc(S(=N)(=O)C4CC4)cc23)ccc(CC(=O)Nc2cnn(C(C)(C)C)c2)c1F (single isomer, unassigned) [Compound 442, N-(1-(tert-butyl)-1H-pyrazol-4-yl)-2-(4-((6-(cyclopropanesulfonimidoyl)quinolin-4-yl)oxy)-2-fluoro-3-methylphenyl)acetamide] | 3 | – | < 2.5 | – | 7 | 0.2
CC(C)(C)n1cc(NC(=O)Cc2cc(Cl)c(Oc3ccnc4ccc(S(C)(=O)=O)cc34)cc2F)cn1 [Compound 429, N-(1-(tert-butyl)-1H-pyrazol-4-yl)-2-(5-chloro-2-fluoro-4-((6-(methylsulfonyl)quinolin-4-yl)oxy)phenyl)acetamide] | 44 | 18 | < 2.5 | 1.6 | – | –
[2H]C([2H])([2H])NC(=O)c1ccc2nccc(Oc3ccc(CC(=O)Nc4cnn(C56CC(C5)C6)c4)cc3C)c2c1 [Compound 559, 4-(4-(2-((1-(bicyclo[1.1.1]pentan-1-yl)-1H-pyrazol-4-yl)amino)-2-oxoethyl)-2-methylphenoxy)-N-(methyl-d3)quinoline-6-carboxamide] | 95.8 | 2 | < 2.5 | 1 | – | –

Source: patent US12624018B1, “Inhibitors of RIPK2 and medical uses thereof” (Odyssey Therapeutics, Inc., priority 2022, dated 2026)
